Assay results as given in patent US5569599A, “Kerainase from fervidobacterium pennavorans DSM 7003” (Degussa Aktiengesellschaft, priority 1992, dated 1996).
Structures can show the parent of a compound that is named as a salt. Numbered stars: 1 amine (or outer) side, 2 acyl side, 3 side chain; on linkers, the order of the positions; unused ones are H or OH. Peptide text beside a SMILES is read from it. * marks the point of attachment. pNA = O=[N+]([O-])c1ccc(N*)cc1; Suc = O=C(CCC(=O)[*:2])[*:1]; Cbz = O=C(OCc1ccccc1)*

Key:
Format in all cases: biochemical, Fervidobacterium pennavorans
[1] = test system: proteases of cell-free raw extract of strain W; assay: Hydrolysis of chromogenic peptide substrates by the proteases (E405 value); conditions: 17 hours at 60° C., 0.2 mM substrate in phosphate buffer pH 7, 0.3 mg/ml raw enzyme extract, measuring stretch 1 cm
Description: The hydrolysis of chromogenic peptide substrates by proteases of the […] (E405 value)
In order to determine the substrate specificity of the proteases the cited chromogenic peptide substrates are incubated in a final concentration of 0.2 mM together with cell-free raw extract.
The incubation takes place below the temperature optimum and pH optimum of the proteases in order to avoid a thermal and pH-dependent, non-enzymatic hydrolysis of the peptide substrates.
900 μl 0.2 mM (w/v) substrate solution in 50 mM Na-P-buffer, pH 7.0
100 μl enzyme specimen incubation for 17 h at 60° C.
The released p-nitroaniline is subsequently measured immediately against a non-incubated blank reading at an extinction of 405 nm.

[2] = test system: proteolytic activity of raw extract of strain W; assay: Influence of metal ions on the proteolytic activity of the raw extract; conditions: 1 h room temperature with raw extract, then 1 h at 80° C. with 0.25 % substrate pH 10; for ca. % activity 1 mM: metal ion 1 mM; for ca. % activity 5 mM: metal ion 5 mM
Description: Cells of a fermenter culture are macerated (approximately 1 g/20 ml Na-phosphate 50 mM pH 6.8 buffer) by ultrasound. (15 min, 50 %, stage (setting) 6-7, average sonication peak, Branson Sonifier). After microscopic control of successful maceration the raw extract is centrifuged for 20 min, 4° C., 35,000 xg. The supernatant obtained in this manner is used for the enzyme tests.
(§1) 0.45 ml 0.25 % (w/v) casein solution (Hammersten Quality) in an appropriate B & R buffer (Britton & Robinson, J. Chem. Soc. (1931), p. 1456. A solution containing 0.4 M H3 PO4, 0.4M CH3 COOH and 0.4M H3 BO3 in water is adjusted to the desired pH with 0.2 N NaOH) is pipetted on ice with 0.05 ml enzyme-containing specimen into E-Cups and incubated, depending on the activity, up to 60 min at the optimal temperature for the enzyme (80° C.) and the optimal pH (10). The batch is then compounded for stopping off and precipitating the proteins with 0.5 ml 10 % (w/v) trichloroacetic acid (TCA), incubated for 15-30 min at room temperature and then centrifuged for 10 min at 13000 rpms in an Eppendorf centrifuge (Heraeus Sepatech, Osterode). The extinction of the clear supernatant is measured at 280 nm in a quartz cuvette against a non-incubated blank reading.
(§2) In order to determine the enzyme activity, a tyrosine calibration curve is recorded in the range of 0-1 μM/batch. An enzyme activity (1 unit) is defined as that amount which released 1 μmole aromatic amino acids/min. The following computation results from the rise of the calibration curve: [formula] Production of the enzyme composition
The metal ions are dissolved in a buffer, 50 mM Na--P; pH 6.8. 50 μl of this solution are incubated with 50 μl raw extract for 1 h at room temperature, then 400 μl substrate (0.25 %, pH 10) are added and incubated for 1 h at 80° C. TCA precipitation and determination of activity are carried out as described above.

[3] = biological target: T1, proteases of the enzyme composition from microorganism strain W (Fervidobacterium pennivorans, UniProt Q93LQ6); assay: biochemical; conditions: for remaining activity at 1000 µM / remaining activity at 5000 µM: 1 h; for remaining activity at 1000 µM: pH 10, read-out: Residual act. (1 mM); for remaining activity at 5000 µM: pH 10, read-out: Residual act. (5 mM); for Residual act. (1 mM): inhibitor 1 mM
T1 construct: casein substrate, pH 10, 80 C
T1 sequence (Q93LQ6 150-699): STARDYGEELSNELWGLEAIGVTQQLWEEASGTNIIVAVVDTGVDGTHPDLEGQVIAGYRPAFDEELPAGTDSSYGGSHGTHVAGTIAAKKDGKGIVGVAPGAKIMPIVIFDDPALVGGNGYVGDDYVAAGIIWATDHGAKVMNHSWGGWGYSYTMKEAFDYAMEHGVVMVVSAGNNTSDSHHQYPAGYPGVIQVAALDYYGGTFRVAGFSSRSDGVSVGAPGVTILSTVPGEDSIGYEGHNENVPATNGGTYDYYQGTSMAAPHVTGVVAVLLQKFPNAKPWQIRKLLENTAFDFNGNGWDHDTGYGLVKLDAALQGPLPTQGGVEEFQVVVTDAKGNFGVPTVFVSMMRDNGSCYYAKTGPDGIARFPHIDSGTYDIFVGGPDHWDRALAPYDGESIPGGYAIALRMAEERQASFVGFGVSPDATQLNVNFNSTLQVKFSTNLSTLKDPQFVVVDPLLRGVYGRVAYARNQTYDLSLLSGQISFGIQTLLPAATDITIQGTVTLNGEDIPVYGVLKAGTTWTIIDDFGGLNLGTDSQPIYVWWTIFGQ
Description: as §1, §2
Phenylmethylsulfonyl fluoride (PMSF) and diisopropylfluorophosphate (DFP) bond to the OH group of the serine in the active center of serine proteases and inhibit the latter irreversibly. Ethylene diamine tetraacetate Na2 salt (EDTA) is a metal chelating agent and inhibits metalloproteases.
470 μl 0.25 % (w/v) casein in […], pH 10--buffer (B & R)
5 μl inhibitor stock [strain]solution (see below)
When using 5 μl inhibitor stock solution the final concentration corresponds to 1 mM. When using 25 μl inhibitor solution (final concentration 5 mM), only 450 μl substrate solution are accordingly used. The batches are at first incubated without substrate at room temperature (1 h) and then with substrate for 1 h at the temperature which is optimum for the enzyme.
After the incubation the reaction is stopped with 500 μl of a 10 % (w/v) solution of trichloroacetic acid and the remaining activity determined as described above. The following inhibitor solutions are used:
PMSF 17.3 % (w/v) in ethanol
EDTA 3.56 % (w/v) in H2 O bidistillate
Iodoacetate 14.4 % (w.v) in H2 O bidistillate

[4] = 1 h preincubation at room temperature, then 1 h with casein, pH 10, optimum temperature, without inhibitor = 100%, approximate values

Molecule	ca. % activity 1 mM [2] [%]	ca. % activity 5 mM [2] [%]	further results
N=C(N)NCCCC(NC(=O)c1ccccc1)C(=O)Nc1ccc([N+](=O)[O-])cc1 (racemic) [benzoyl-DL-Arg-pNA]	–	–	E405 value (in comparison to blank value) [1]: below 0.1
[Ca+2].[Cl-].[Cl-] [CaCl2]	85	117	–
[Cl-].[Cl-].[Co+2] [CoCl2]	143	187	–
[Cl][Cu][Cl] [CuCl2]	17	0	–
O=C(O)CN(CCN(CC(=O)O)CC(=O)O)CC(=O)O [EDTA, Ethylene diamine tetraacetate Na2 salt]	–	–	remaining activity at 1000 µM [3]: 93%; remaining activity at 5000 µM [3]: 85%
[Cl][Fe][Cl] [FeCl2]	127	0	–
[Cl][Fe]([Cl])[Cl] [FeCl3]	93	0	–
O=C(O)CI [Iodoacetate]	–	–	remaining activity at 1000 µM [3]: 83%; remaining activity at 5000 µM [3]: 76%
[Cl-].[Cl-].[Mg+2] [MgCl2]	171	125	–
[Cl][Mn][Cl] [MnCl2]	110	120	–
C[C@H](NC(=O)CCC(=O)O)C(=O)N[C@@H](C)C(=O)N1CCC[C@H]1C(=O)N[C@@H](Cc1ccccc1)C(=O)Nc1ccc([N+](=O)[O-])cc1 [N-succinyl-Ala-Ala-Pro-Phe-pNA] (Suc-AAPF-pNA)	–	–	E405 value (in comparison to blank value) [1]: > 0.5
O=C(O)CCC(=O)N[C@@H](Cc1ccccc1)C(=O)Nc1ccc([N+](=O)[O-])cc1 [N-succinyl-Phe-pNA]	–	–	E405 value (in comparison to blank value) [1]: > 0.5
[Cl-].[Na+] [NaCl]	86	116	–
O=[Se]([O-])[O-].[Na+].[Na+] [NaSe2 O3]	96	136	–
[Na+].[Na+].[O]=[W](=[O])([O-])[O-] [NaWO4]	75	134	–
[Na+].[Na+].[O]=[Mo](=[O])([O-])[O-] [NcMoO4]	91	95	–
[Cl][Ni][Cl] [NiCl2]	72	44	–
O=S(=O)(F)Cc1ccccc1 [PMSF, Phenylmethylsulfonyl fluoride]	–	–	Residual act. (1 mM) [3, 4]: 14%; Residual act. (5 mM) ([3]; inhibitor 5 mM, 1 h preincubation at room temperature, then 1 h with casein, pH 10, optimum temperature, without inhibitor = 100%, approximate values): 10%
NCCc1ccc(S(=O)(=O)F)cc1 [Pefabloc SC]	–	–	Residual act. (1 mM) [3, 4]: 83%
O=S(=O)([O-])[O-].[O]=[V+2] [VOSO4]	87	44	–
O=C(NCC(=O)N1CCC[C@H]1C(=O)Nc1ccc([N+](=O)[O-])cc1)OCc1ccccc1 [Z-Gly-Pro-pNA] (Cbz-Gly-Pro-pNA)	–	–	E405 value (in comparison to blank value) [1]: below 0.1
[Cl-].[Cl-].[Zn+2] [ZnCl2]	57	37	–
CC(=O)N[C@@H](Cc1ccc(O)cc1)C(=O)Nc1ccc([N+](=O)[O-])cc1 [acetyl-Tyr-pNA]	–	–	E405 value (in comparison to blank value) [1]: below 0.1
NCCCC[C@H](NC(=O)c1ccccc1)C(=O)Nc1ccc([N+](=O)[O-])cc1 [benzoyl-Lys-pNA]	–	–	E405 value (in comparison to blank value) [1]: below 0.1
AgCl2	0	0	–
